Test results as given in ChEMBL document CHEMBL1201862, “PubChem BioAssay data set” (2004).
One block for each compound: values may come before it. The source made the active and inactive calls.

Assays:
[1] = target: Cytochrome P450 2C19 (Homo sapiens, UniProt P33261); assay: Cytochrome panel assay with activity outcomes. Panel member name: p450-cyp2c19 Compounds with AC50 equal or less than 10 uM are considered active; type: functional; conditions: read-out: AC50
[2] = target: Cytochrome P450 2C9 (Homo sapiens, UniProt P11712)
[3] = target: Dual specificity tyrosine-phosphorylation-regulated kinase 1A (Rattus norvegicus, UniProt Q63470); type: biochemical, Homo sapiens
[4] = Trypanosoma cruzi growth suppression in host cells – NIH3T3 host cells, beta-gal luminescence, confirmation (AID 2044); type: functional, cell-based;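 also: intracellular parasites grown in NIH/3T3 mouse fibroblasts as host cells; luminescent beta-galactosidase reporter signal from transgenic T. cruzi replicating inside host cells; inhibitors lower the luminescence signal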
[5] = target: T1, Microphthalmia-associated transcription factor (Homo sapiens, UniProt O75030); assay: reducers of TRPM1 reporter luminescence, concentration series – cell-based, SK-MEL-5, cherry-picked, set 3, MITF inhibitor project, dose response (AID 493073); type: functional;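 also: SK-MEL-5 melanoma cells with luciferase driven by the MITF target TRPM1 promoter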
T1 sequence (O75030 whole entry): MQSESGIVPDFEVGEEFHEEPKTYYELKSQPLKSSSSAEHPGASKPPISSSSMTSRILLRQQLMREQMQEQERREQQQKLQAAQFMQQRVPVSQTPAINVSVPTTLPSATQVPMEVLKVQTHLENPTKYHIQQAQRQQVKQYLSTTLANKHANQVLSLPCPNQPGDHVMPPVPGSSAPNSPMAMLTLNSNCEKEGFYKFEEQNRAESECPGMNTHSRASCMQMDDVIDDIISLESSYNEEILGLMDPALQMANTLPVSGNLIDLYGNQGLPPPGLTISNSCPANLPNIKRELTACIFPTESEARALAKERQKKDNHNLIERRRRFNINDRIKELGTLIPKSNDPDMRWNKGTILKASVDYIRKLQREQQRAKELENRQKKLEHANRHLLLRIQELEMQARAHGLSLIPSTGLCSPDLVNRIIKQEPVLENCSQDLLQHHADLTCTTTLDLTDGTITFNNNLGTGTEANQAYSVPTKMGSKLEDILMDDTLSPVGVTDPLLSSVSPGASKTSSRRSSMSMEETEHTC

[6] = NIH3T3 cell viability loss – ATP luminescence, mouse fibroblasts, counter-screen, dose response (AID 2010); type: functional, cell-based;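 also: cells exposed to compound for about 90 hours before reading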
[7] = target: T2, DNA repair protein RAD52 homolog (Homo sapiens, UniProt P43351); type: functional, biochemical
T2 sequence (P43351 whole entry): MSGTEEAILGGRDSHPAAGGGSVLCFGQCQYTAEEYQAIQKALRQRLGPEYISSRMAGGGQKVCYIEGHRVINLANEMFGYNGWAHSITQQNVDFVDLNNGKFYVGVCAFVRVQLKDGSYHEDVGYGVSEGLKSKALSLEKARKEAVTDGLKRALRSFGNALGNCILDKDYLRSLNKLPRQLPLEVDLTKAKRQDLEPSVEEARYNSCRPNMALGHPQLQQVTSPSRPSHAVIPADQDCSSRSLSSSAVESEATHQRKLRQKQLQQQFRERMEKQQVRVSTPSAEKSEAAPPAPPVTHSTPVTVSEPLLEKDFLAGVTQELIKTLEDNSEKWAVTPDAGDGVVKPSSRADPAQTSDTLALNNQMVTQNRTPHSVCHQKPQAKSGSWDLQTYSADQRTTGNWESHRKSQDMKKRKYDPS

[8] = target: T3, High affinity choline transporter 1 (Homo sapiens, UniProt Q9GZV3); assay: human choline transporter blockers, potency – cell-based, 5-point CRC, membrane potential dye, dose response (AID 504840); type: functional
T3 sequence (Q9GZV3 whole entry): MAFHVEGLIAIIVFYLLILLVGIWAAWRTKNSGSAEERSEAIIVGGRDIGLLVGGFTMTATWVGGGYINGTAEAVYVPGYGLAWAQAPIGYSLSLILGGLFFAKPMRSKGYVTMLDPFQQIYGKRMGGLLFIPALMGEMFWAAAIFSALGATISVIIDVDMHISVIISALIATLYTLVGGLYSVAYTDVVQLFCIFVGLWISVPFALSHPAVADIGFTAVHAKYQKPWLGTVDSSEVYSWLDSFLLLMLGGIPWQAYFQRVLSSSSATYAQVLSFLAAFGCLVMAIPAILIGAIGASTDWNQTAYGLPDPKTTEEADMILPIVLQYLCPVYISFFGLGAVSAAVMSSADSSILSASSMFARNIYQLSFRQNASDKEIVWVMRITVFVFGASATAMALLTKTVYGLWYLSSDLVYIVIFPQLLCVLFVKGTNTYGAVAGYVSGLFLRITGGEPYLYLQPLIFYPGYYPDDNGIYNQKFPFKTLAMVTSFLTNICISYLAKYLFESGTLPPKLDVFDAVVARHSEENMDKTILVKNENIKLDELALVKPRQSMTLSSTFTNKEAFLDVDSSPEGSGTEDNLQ

Cytochrome P450 2C19, sequence (P33261 whole entry): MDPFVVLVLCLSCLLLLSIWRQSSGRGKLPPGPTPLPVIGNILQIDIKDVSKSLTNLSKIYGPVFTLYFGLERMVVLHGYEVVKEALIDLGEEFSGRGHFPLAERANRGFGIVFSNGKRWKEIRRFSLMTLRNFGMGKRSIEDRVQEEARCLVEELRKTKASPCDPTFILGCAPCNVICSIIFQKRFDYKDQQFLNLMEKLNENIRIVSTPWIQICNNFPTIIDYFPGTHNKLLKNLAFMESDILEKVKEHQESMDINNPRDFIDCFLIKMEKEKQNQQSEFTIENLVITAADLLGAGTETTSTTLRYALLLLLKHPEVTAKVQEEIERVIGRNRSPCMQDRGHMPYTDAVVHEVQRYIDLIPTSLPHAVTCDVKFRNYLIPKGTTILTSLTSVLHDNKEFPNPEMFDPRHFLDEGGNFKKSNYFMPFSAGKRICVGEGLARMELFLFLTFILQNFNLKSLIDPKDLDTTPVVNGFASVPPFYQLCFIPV
Cytochrome P450 2C9, sequence (P11712 whole entry): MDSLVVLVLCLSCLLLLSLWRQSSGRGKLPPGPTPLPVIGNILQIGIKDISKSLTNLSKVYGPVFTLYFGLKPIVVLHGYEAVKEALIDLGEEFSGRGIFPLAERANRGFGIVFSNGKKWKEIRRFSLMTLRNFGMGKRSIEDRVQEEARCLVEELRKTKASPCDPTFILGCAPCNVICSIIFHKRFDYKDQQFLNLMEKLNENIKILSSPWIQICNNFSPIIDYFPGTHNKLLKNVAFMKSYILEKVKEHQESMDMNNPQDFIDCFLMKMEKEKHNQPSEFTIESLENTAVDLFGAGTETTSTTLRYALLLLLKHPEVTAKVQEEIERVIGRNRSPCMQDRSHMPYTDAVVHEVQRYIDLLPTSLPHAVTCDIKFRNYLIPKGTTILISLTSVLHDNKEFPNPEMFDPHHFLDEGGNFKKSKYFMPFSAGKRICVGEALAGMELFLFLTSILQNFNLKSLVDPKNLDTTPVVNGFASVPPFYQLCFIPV

AC50 [1]: 25.1 µM (inconclusive) | AC50 [2]: inconclusive | AC50 [3]: 1.21 µM (active)
Structure (SMILES): NC1=NC(=O)/C(=C/c2cccs2)S1

Structure (SMILES): Cc1cc(C)c2nc3nc(C)cc(C)c3c(N)c2c1
EC50 [4]: 1.5 µM (active) | AC50 [5]: 5.72 µM (active) | EC50 [6]: > 60 µM (not active) | AC50 [7]: 1.12 µM (active)

IC50 [8]: 15.1 µM (active)
Structure (SMILES): CCCn1c2ccccc2c2cnn(CC(=O)NCCCN3CCCC(C)C3)c(=O)c21 (stereo not drawn)
